Like-named read-outs stand apart in the source and are kept apart here.

The test system of data set [1] is Raji cells. In words: BrdU incorporation assay, glucocorticoid sensitivity of oligonucleotide-transfected Raji cells. Particulars: for BrdU incorporation: absorbance at 450 nm. Format: cell-based, human. Here is the method:
In order to examine the change of glucocorticoid sensitivity of cells caused by introduction of oligonucleotide 1, cell proliferation was quantified by a 5-bromo-2′-deoxyuridine (BrdU) incorporation assay. Dexamethasone (manufactured by Biomol) was used as a glucocorticoid. The concentration of dexamethasone was set to varied concentrations of 0 μM (no addition), 0.1 μM, 0.5 μM, 1 μM, 5 μM, and 10 μM.
Raji cells were cultured in serum-free RPMI1640 medium for 12 hours to synchronize the cell cycle, and then re-suspended in RPMI1640 medium supplemented with serum and inoculated onto a 96-well plate.
After dexamethasone was added, the cells were cultured for 22 hours. Then, BrdU was added thereto, and the cells were cultured for another 2 hours. After centrifugation, the supernatant was discarded, and the cells were dried and fixed. The fixed cells were allowed to react with a peroxidase-labeled anti-BrdU antibody for 1 hour at room temperature. Subsequently, the cells were washed three times with PBS, and tetramethylbenzidine was added thereto. When noticeable coloring was observed, the reaction was stopped by adding H2SO4 (1M). After vigorous agitation, absorbance at 450 nm was measured using a plate reader.
Using the Raji cells to which dexamethasone was not added as a control, cell proliferation inhibitory rate (%) was calculated based on the relative ratio of the obtained absorbance. Here, statistical significance was assessed with one-way analysis of variance and multiple comparison. Tukey's multiple comparison was used for the multiple comparison. A significance level of P<0.05 (vs. no addition of oligonucleotide) was regarded as a significant difference.
BrdU incorporation assay was performed in the same manner as in the above, and alternation of the glucocorticoid sensitivity of the cells caused by the introduction of any one of oligonucleotides 2 to 5 was examined. Each experiment was carried out in quadruplicate. The values shown in Table 7 are average values thereof.
For orientation: Incorporation of labelled thymidine or its analogues reports DNA synthesis.

Data set [2] relates to Raji cells. The data set can be described thus: BrdU incorporation assay, glucocorticoid sensitivity of oligonucleotide 4-expressing Raji cells. It counts as cell-based, human. Particulars: for BrdU incorporation: absorbance. As for the experimental part:
In order to examine the glucocorticoid sensitivity of the oligonucleotide 4-expressin Raji cells, BrdU incorporation assay was performed in the same manner as in Example 2, and cell proliferation was quantified. The concentration of dexamethasone was set to 0 μM (no addition) or 5 μM. Each experiment was repeated in triplicate. The values shown in Table 13 are average of thereof.

Data set [3] deals with GRα and GRβ. In words: GRα and GRβ expression levels in Raji cells transfected with oligonucleotide (RT-PCR and PCR).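 For GAPDH: mean of three independent experiments.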 Format: cell-based, human. As for the experimental part: Raji cells (manufactured by Japan Health Science Foundation) derived from human Burkitt's lymphoma were used in experiments.
Raji cells were cultured and maintained in RPMI1640 medium (manufactured by Gibco) at 37° C. in an atmosphere of 5% CO2, the RPMI1640 medium being supplemented with 10% fetal bovine serum (FBS) (manufactured by Filtoron), 100 U/ml penicillin, and 100 μg/ml streptomycin.
2×10^6 Raji cells were washed with phosphate-buffered saline (PBS) and suspended in 100 μl transfection reagent of an Amaxa cell line Nucleofector Kit V (manufactured by Lonza).
After the Raji cells were cultured in the above-described medium for 24 hours, the Raji cells were used for subsequent experiments.
The expression level of glyceraldehyde-3-phosphate dehydrogenase (GAPDH) was determined as an endogenous control.
After the Raji cells were washed with PBS, RNA was extracted using a FastPure RNA Kit (manufactured by Takara Bio Inc.), and reverse transcription was performed using a PrimeScript 1st strand cDNA synthesis kit (manufactured by Takara Bio Inc.). The obtained cDNA was amplified using Platinum Taq DNA polymerase (manufactured by Invitrogen) and PCR primers (having the base sequences shown in Table 2) specific for the gene of interest. The PCR conditions included: performing initial denaturation at 94° C. for 2 minutes; performing 35 cycles of denaturation (94° C. for 30 seconds), annealing (55° C. for 30 seconds), and extension (72° C. for 1 minute); and then performing final extension at 72° C. for 4 minutes.
After the PCR was performed, DNA was separated by […] electrophoresis on a 2% agarose gel containing ethidium bromide, and the intensity of bands was quantified using an image analyzer GEL PRINT 2000i/VGA (manufactured by Genomic Solutions).

Data set [4] deals with GRα and GRβ. In words: GRα and GRβ expression levels in oligonucleotide 4-expressing Raji cells.
The mark [5] stands for this setting: expression level (band intensity), oligonucleotide 300 nM by electroporation, 24 h.
[6] abbreviates: Raji cells constitutively expressing oligonucleotide 4.
Where [7] appears, read: expression level (band intensity), Raji cells constitutively expressing oligonucleotide 4 (retrovirus vector).
The mark [8] stands for this setting: expression level (band intensity), Raji cells constitutively expressing oligonucleotide 4 (retrovirus vector), listed as oligonucleotide 4.

For the compound `C[C@@H]1C[C@H]2[C@@H]3CCC4=CC(=O)C=C[C@]4(C)[C@@]3(F)[C@@H](O)C[C@]2(C)[C@@]1(O)C(=O)CO` [dexamethasone, reference compound], the inhibition at 0.1 µM was found to be 13.4% in the data set on Raji cells [1] (Homo sapiens, Raji, dexamethasone 0.1 μM vs no dexamethasone, triplicate, label dexamethasone = no oligonucleotide introduced, read-out: cell proliferation inhibitory rate) and 13.2% with Raji cells [1] (Homo sapiens, Raji, dexamethasone 0.1 μM, quadruplicate (Table 7), label dexamethasone = no oligonucleotide transfected, read-out: cell proliferation inhibitory rate). For the same compound, the inhibition at 0.5 µM amounted to 16.2% in the data set with Raji cells [1] (Homo sapiens, Raji, dexamethasone 0.5 μM vs no dexamethasone, triplicate, label dexamethasone = no oligonucleotide introduced, read-out: cell proliferation inhibitory rate) and 17.6% in the data set on Raji cells [1] (Homo sapiens, Raji, dexamethasone 0.5 μM, quadruplicate (Table 7), label dexamethasone = no oligonucleotide transfected, read-out: cell proliferation inhibitory rate). For the same compound, the inhibition at 1 µM is 12.6% in the data set with Raji cells [1] (Homo sapiens, Raji, dexamethasone 1 μM vs no dexamethasone, triplicate, label dexamethasone = no oligonucleotide introduced, read-out: cell proliferation inhibitory rate) and 22.2% in the data set with Raji cells [1] (Homo sapiens, Raji, dexamethasone 1 μM, quadruplicate (Table 7), label dexamethasone = no oligonucleotide transfected, read-out: cell proliferation inhibitory rate). Moreover, the inhibition at 5 µM with Raji cells [1] (Homo sapiens, Raji, dexamethasone 5 μM vs no dexamethasone, triplicate, label dexamethasone = no oligonucleotide introduced, read-out: cell proliferation inhibitory rate) turned out to be 23.3%; in the data set with Raji cells [1] (Homo sapiens, Raji, dexamethasone 5 μM, quadruplicate (Table 7), label dexamethasone = no oligonucleotide transfected, read-out: cell proliferation inhibitory rate), 21.7%. Moreover, the inhibition at 10 µM in the data set with Raji cells [1] (Homo sapiens, Raji, dexamethasone 10 μM vs no dexamethasone, triplicate, label dexamethasone = no oligonucleotide introduced, read-out: cell proliferation inhibitory rate) turned out to be 23.9%. Besides, the BrdU incorporation stood at 0.475 in the data set on Raji cells [1] (dexamethasone 0.1 μM, triplicate, label dexamethasone = no oligonucleotide introduced); 0.461 in the data set on Raji cells [1] (dexamethasone 0.5 μM, triplicate, label dexamethasone = no oligonucleotide introduced); 0.479 with Raji cells [1] (dexamethasone 1 μM, triplicate, label dexamethasone = no oligonucleotide introduced); 0.422 with Raji cells [1] (dexamethasone 5 μM, triplicate, label dexamethasone = no oligonucleotide introduced); 0.418 in the data set on Raji cells [1] (dexamethasone 10 μM, triplicate, label dexamethasone = no oligonucleotide introduced); 1.07 with Raji cells [2] (dexamethasone 5 μM, label dexamethasone = Control Raji cell).
“Oligonucleotide 4: an oligonucleotide having a base sequence represented by SEQ ID NO: 4 (5′-TTTGTCCCCATTATATAGCATTT-3′) (listed as DNA, chemistry not given here)”: the GAPDH in the data set on GRα and GRβ [3] (expression level (band intensity), endogenous control, oligonucleotide 300 nM by electroporation, 24 h) came to 2991.776; in the data set with GRα and GRβ [4] (expression level (band intensity), endogenous control, Raji cells constitutively expressing oligonucleotide 4 (retrovirus vector)), 6428.135. Also, the GRα with GRα and GRβ [3] (setting [5]) is listed as 3157.440; in the data set with GRα and GRβ [4] (setting [7]), 4803.456; in the data set on GRα and GRβ [4] (setting [8]), “increases the expression level of GRα”. Besides, the GRβ with GRα and GRβ [3] (setting [5]) was 4592.806; with GRα and GRβ [4] (setting [7]) it was 1866.325; in the data set on GRα and GRβ [4] (setting [8]), “decreases the expression level of GRβ”. Moreover, the GRα/GAPDH was 1.057 in the data set with GRα and GRβ [3] (oligonucleotide 300 nM); 0.747 in the data set with GRα and GRβ [4] (setting [6]). Further, the GRβ/GAPDH in the data set with GRα and GRβ [3] (oligonucleotide 300 nM) was found to be 1.533; in the data set with GRα and GRβ [4] (setting [6]) it was 0.290. Also, the “cell proliferation inhibitory rate” value was found to be 12.464% in the data set on Raji cells [1] (dexamethasone 0.1 μM, quadruplicate (Table 7), label dexamethasone = no oligonucleotide transfected); 23.397% in the data set on Raji cells [1] (dexamethasone 0.5 μM, quadruplicate (Table 7), label dexamethasone = no oligonucleotide transfected); 28.863% in the data set with Raji cells [1] (dexamethasone 1 μM, quadruplicate (Table 7), label dexamethasone = no oligonucleotide transfected); 28.061% with Raji cells [1] (dexamethasone 5 μM, quadruplicate (Table 7), label dexamethasone = no oligonucleotide transfected). In the data set on Raji cells [2] (oligonucleotide 4-expressing Raji cell, dexamethasone 0 μM), the BrdU incorporation came to 1.13. Also, in the data set with Raji cells [2] (constitutive expression of oligonucleotide 4 in Raji cells, in words), the glucocorticoid sensitivity entry is on record as “increases glucocorticoid sensitivity”.

The values above are taken from patent publication US9234200B2, “Oligonucleotide, glucocorticoid sensitivity enhancer, pharmaceutical composition, and expression vector” (National University Corporation Tokyo University of …, priority 2011, dated 2016).
